Experimental data published in ChEMBL document CHEMBL4304773, “Nitroimidazole-containing compounds and their antibacterial and antitubercular activities” (2019).

Columns and labels:
Helicobacter pylori [1] = assay: Antibacterial activity against drug-sensitive Helicobacter pylori assessed as zone of inhibition at 8 ug/disc; format: functional; settings: read-out: IZ
Helicobacter pylori [2] = assay: Antibacterial activity against Helicobacter pylori clinical isolate assessed as zone of inhibition at 8 ug/disc; format: functional; settings: read-out: IZ
Enterococcus faecalis [3] = assay: Antibacterial activity against Enterococcus faecalis; format: functional
Klebsiella aerogenes = assay: Antibacterial activity against Klebsiella aerogenes; format: functional
Escherichia coli [4] = assay: Antibacterial activity against Escherichia coli; format: functional
Pseudomonas aeruginosa [5] = assay: Antibacterial activity against Pseudomonas aeruginosa; format: functional
[6] = tested on: Staphylococcus epidermidis; assay: Antibacterial activity against Staphylococcus epidermidis; format: functional
Candida albicans = assay: Antifungal activity against Candida albicans; format: functional
Salmonella typhimurium = assay: Antibacterial activity against Salmonella typhimurium; format: functional, Salmonella enterica subsp. enterica serovar Typhimurium; settings: Salmonella enterica
Proteus vulgaris = assay: Antibacterial activity against Proteus vulgaris; format: functional
Staphylococcus aureus [7] = assay: Antibacterial activity against Staphylococcus aureus; format: functional
[8] = tested on: Staphylococcus epidermidis; assay: Antibacterial activity against methicillin-sensitive Staphylococcus epidermidis by two fold dilution method; format: functional
Staphylococcus aureus [9] = assay: Antibacterial activity against methicillin-sensitive Staphylococcus aureus by two fold dilution method; format: functional
Helicobacter pylori [10] = assay: Antibacterial activity against metronidazole-resistant Helicobacter pylori; format: functional
Clostridioides difficile [11] = assay: Antibacterial activity against Clostridium difficile 630 assessed as zone of inhibition at 2.5 ug/disc after 24 hrs; format: functional; settings: Clostridioides difficile, 630, 24 h; read-out: IZ
Clostridioides difficile [12] = assay: Antibacterial activity against Clostridium difficile ATCC 43603 assessed as zone of inhibition at 2.5 ug/disc after 24 hrs; format: functional; settings: ATCC 43603, 24 h, read-out: IZ
Clostridioides difficile [13] = assay: Antibacterial activity against Clostridium difficile R20291 assessed as zone of inhibition at 2.5 ug/disc after 24 hrs; format: functional; settings: read-out: IZ
Helicobacter pylori [14] = assay: Antibacterial activity against drug-resistant Helicobacter pylori assessed as zone of inhibition at 8 ug/disc; format: functional; settings: read-out: IZ
Escherichia coli [15] = assay: Antibacterial activity against drug-resistant Escherichia coli after 24 hrs; format: functional
Pseudomonas aeruginosa [16] = assay: Antibacterial activity against Pseudomonas aeruginosa ATCC 27853 after 24 hrs; format: functional; settings: ATCC 27853, 24 h
Pseudomonas aeruginosa [17] = assay: Antibacterial activity against Pseudomonas aeruginosa after 24 hrs; format: functional
Staphylococcus aureus [18] = assay: Antibacterial activity against Staphylococcus aureus ATCC 25923 after 24 hrs; format: functional; settings: ATCC 25923, 24 h
Escherichia coli [19] = assay: Antibacterial activity against Escherichia coli ATCC 25922 after 24 hrs; format: functional; settings: ATCC 25922, 24 h
Klebsiella pneumoniae = assay: Antibacterial activity against Klebsiella pneumoniae after 24 hrs; format: functional
Enterococcus faecalis [20] = assay: Antibacterial activity against Enterococcus faecalis after 24 hrs; format: functional
Staphylococcus aureus [21] = assay: Antibacterial activity against methicillin-resistant Staphylococcus aureus after 24 hrs; format: functional
Staphylococcus aureus [22] = assay: Antibacterial activity against Staphylococcus aureus ATCC 29213 after 24 hrs; format: functional; settings: ATCC 29213, 24 h
Escherichia coli [23] = assay: Potency index, ratio of norfloxacin MIC to test compound MIC for drug-resistant Escherichia coli; format: functional

Cn1c([N+](=O)[O-])cnc1-c1nnc(S)s1
20.9 to 50 mm: zone of inhibition at 8 µg/disc (Helicobacter pylori [1]) | zone of inhibition at 8 µg/disc (Helicobacter pylori [2])

Cc1ccc(/C=C2\SC(=O)N(CCn3c([N+](=O)[O-])cnc3C)C2=O)cc1
31.2 to 500 µg/mL: MIC (Enterococcus faecalis [3]) | MIC (Klebsiella aerogenes) | MIC (Escherichia coli [4]) | MIC (Pseudomonas aeruginosa [5]) | MIC [6] | MIC (Candida albicans) | MIC (Salmonella typhimurium) | MIC (Proteus vulgaris) | MIC (Staphylococcus aureus [7])

COc1c(N2CCNC(C)C2)c(F)cc2c(=O)c(C(=O)O)cn(C3CC3)c12 (stereo not drawn) [GATIFLOXACIN]
0.06 to 16 µg/mL: MIC [8] | MIC (Staphylococcus aureus [9])

Cc1ncc([N+](=O)[O-])n1CCO [METRONIDAZOLE]
11 mm: zone of inhibition at 8 µg/disc (Helicobacter pylori [14])
18 mm: zone of inhibition at 8 µg/disc (Helicobacter pylori [1])
9 to 22 mm: zone of inhibition at 2.5 µg/disc (Clostridioides difficile [11]) | zone of inhibition at 2.5 µg/disc (Clostridioides difficile [12]) | zone of inhibition at 2.5 µg/disc (Clostridioides difficile [13])
> 32 µg/mL: MIC90 (Helicobacter pylori [10])
16.3 mm: zone of inhibition at 8 µg/disc (Helicobacter pylori [2])

Cc1ncc([N+](=O)[O-])n1CCN1C(=O)S/C(=C\c2ccco2)C1=O
31.2 to 500 µg/mL: MIC (Enterococcus faecalis [3]) | MIC (Klebsiella aerogenes) | MIC (Escherichia coli [4]) | MIC (Pseudomonas aeruginosa [5]) | MIC [6] | MIC (Candida albicans) | MIC (Salmonella typhimurium) | MIC (Proteus vulgaris) | MIC (Staphylococcus aureus [7])

COc1cc(/C=C(\C#N)n2cc([N+](=O)[O-])nc2C)c2c(c1OCc1ccccc1F)CN1CCc3cc4c(cc3C1C2)OCO4 (stereo not drawn)
3 µM: MIC (Escherichia coli [15])
3 to 1020 µM: MIC (Pseudomonas aeruginosa [16]) | MIC (Pseudomonas aeruginosa [17]) | MIC (Staphylococcus aureus [18]) | MIC (Escherichia coli [19]) | MIC (Klebsiella pneumoniae) | MIC (Enterococcus faecalis [20]) | MIC (Staphylococcus aureus [21]) | MIC (Staphylococcus aureus [22])
33: Ratio (Escherichia coli [23])

Cc1ncc([N+](=O)[O-])n1CCN1C(=O)S/C(=C\c2cccs2)C1=O
31.2 to 500 µg/mL: MIC (Enterococcus faecalis [3]) | MIC (Klebsiella aerogenes) | MIC (Escherichia coli [4]) | MIC (Pseudomonas aeruginosa [5]) | MIC [6] | MIC (Candida albicans) | MIC (Salmonella typhimurium) | MIC (Proteus vulgaris) | MIC (Staphylococcus aureus [7])
